# Measured values taken from patent publication US20250382305A1 (PTC THERAPEUTICS, INC., priority 2022, published 2025).
# Tests used:
# [1] = test system: Total ATXN3 (tATXN3) protein; assay: Endogenous Total ATXN3 (tATXN3) Protein Assay (MSD immunoassay of cell lysates); type: cell-based; conditions: average IC50, total ATXN3 protein in cell lysate after 48 h with compound (Table 1)
# In short: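 Cells in DMEM/10% FBS were plated at 10,000 per well onto 7-point, 3.16-fold compound dilutions in duplicate for 48 h at 37° C, then lysed. Total ATXN3 in lysates was measured by MSD sandwich immunoassay: mouse anti-ATXN3 capture, rabbit anti-ATXN3 detection, SULFO-TAG anti-rabbit. Average IC50 was reported in star bins.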
# ATXN3 pre-mRNA = assay: RT-qPCR Assay to Quantify Exon 4 Skipping in ATXN3 pre-mRNA in Cells; type: cell-based; conditions: percent exon 4 skipping in ATXN3 pre-mRNA, RT-qPCR of cell lysates; average IC50
# In short: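 Cells plated at 10,000/well onto a 7-point, 3.16-fold DMSO dilution series (duplicates), incubated 24 h at 37 °C, then lysed. Exon 4 skipping measured by one-step RT-qPCR (48 °C RT, 40 cycles); IC50 interpolated from dose-response fit of percent skipping.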
IC50 [1] [nM],IC50 (ATXN3 pre-mRNA) [nM],Compound
≤ 30,≤ 30,"N[C@H]1CC=CC[C@@H]1c1sc2c(NCc3ccncc3)cc(Cl)nc2c1Cl [Compound 203, 2-((1S,6S)-6-aminocyclohex-3-en-1-yl)-3,5-dichloro-N-(pyridin-4-ylmethyl)thieno[3,2-b]pyridin-7-amine]"
≤ 30,≤ 30,"[2H]C1=C([2H])C([2H])([2H])[C@H](c2sc3c(NCc4cccs4)cc(Cl)nc3c2C)[C@@H](N)C1([2H])[2H] [Compound 205, 2-((1S,6S)-6-aminocyclohex-3-en-1-yl-2,2,3,4,5,5-d6)-5-chloro-3-methyl-N-(thiophen-2-ylmethyl)thieno[3,2-b]pyridin-7-amine]"
≤ 30,≤ 30,"N[C@H]1CC=CC[C@@H]1c1sc2c(NCc3ccco3)cc(Cl)nc2c1Br [Compound 206, 2-((1S,6S)-6-aminocyclohex-3-en-1-yl)-3-bromo-5-chloro-N-(furan-2-ylmethyl)thieno[3,2-b]pyridin-7-amine]"
≤ 30,≤ 30,"N[C@H]1CC=CC[C@@H]1c1sc2c(NCc3ccccc3)cc(Cl)nc2c1Cl [Compound 207, 2-((1S,6S)-6-aminocyclohex-3-en-1-yl)-N-benzyl-3,5-dichlorothieno[3,2-b]pyridin-7-amine]"
≤ 30,≤ 30,"C#Cc1c([C@H]2CCCC[C@@H]2N)sc2c(NCc3ccccc3)cc(Cl)nc12 [Compound 210, 2-((1S,2S)-2-aminocyclohexyl)-N-benzyl-5-chloro-3-ethynylthieno[3,2-b]pyridin-7-amine]"
≤ 30,≤ 30,"N[C@H]1CC=CC[C@@H]1c1sc2c(NCc3cccs3)cc(Cl)nc2c1C#CC[C@@H](O)CO [Compound 211, (R)-5-(2-((1S,6S)-6-aminocyclohex-3-en-1-yl)-5-chloro-7-((thiophen-2-ylmethyl)amino)thieno[3,2-b]pyridin-3-yl)pent-4-yne-1,2-diol]"
≤ 30,≤ 30,"[2H]C1=C([2H])C([2H])([2H])[C@H](c2sc3c(NCc4ccco4)cc(Cl)nc3c2C)[C@@H](N)C1([2H])[2H] [Compound 212, 2-((1S,6S)-6-aminocyclohex-3-en-1-yl-2,2,3,4,5,5-d6)-5-chloro-N-(furan-2-ylmethyl)-3-methylthieno[3,2-b]pyridin-7-amine]"
≤ 30,≤ 30,"N[C@H]1CC=CC[C@@H]1c1sc2c(NCc3ccncc3)nc(Cl)nc2c1Cl [Compound 214, 6-((1S,6S)-6-aminocyclohex-3-en-1-yl)-2,7-dichloro-N-(pyridin-4-ylmethyl)thieno[3,2-d]pyrimidin-4-amine]"
≤ 30,≤ 30,"N[C@H]1CC=CC[C@@H]1c1sc2c(NCc3cccs3)cc(Cl)nc2c1C#CC[C@H](O)CO [Compound 216, (S)-5-(2-((1S,6S)-6-aminocyclohex-3-en-1-yl)-5-chloro-7-((thiophen-2-ylmethyl)amino)thieno[3,2-b]pyridin-3-yl)pent-4-yne-1,2-diol]"
≤ 30,≤ 30,"N[C@H]1CC=CC[C@@H]1c1sc2c(NCc3ccsc3)cc(Cl)nc2c1Br [Compound 217, 2-((1S,6S)-6-aminocyclohex-3-en-1-yl)-3-bromo-5-chloro-N-(thiophen-3-ylmethyl)thieno[3,2-b]pyridin-7-amine]"
≤ 30,≤ 30,"N[C@H]1CCOC[C@@H]1c1sc2c(NCc3ccccc3)cc(Cl)nc2c1Cl [Compound 218, 2-((3R,4S)-4-aminotetrahydro-2H-pyran-3-yl)-N-benzyl-3,5-dichlorothieno[3,2-b]pyridin-7-amine]"
≤ 30,≤ 30,"CC#CCNc1nc(Cl)nc2c(I)c([C@H]3CC=CC[C@@H]3N)sc12 [Compound 219, 6-((1S,6S)-6-aminocyclohex-3-en-1-yl)-N-(but-2-yn-1-yl)-2-chloro-7-iodothieno[3,2-d]pyrimidin-4-amine]"
